Our source for the relative viability values is the supplement of paper PMC10307832.

Each structure is given as a SMILES string.

The subject of the first assay is NCI-H2347. As to the kind of experiment: relative viability (nuclei count vs DMSO), 5 days (fraction); higher = more cells survive. The following applies: first compound 8 µM. The method, boiled down: (§1)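 Dosing by pin tool came one day after lung cancer cell lines were seeded in 1536-well plates, using either one drug or a fixed anchor-drug dose plus five library-drug doses (not always all listed) in √10 steps. After 5 days, nuclei were counted on 4× images. Relative viability is treated-well nuclei count divided by vehicle-well nuclei count, and values are medians of duplicate plates.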
`CCCCCCCCCCCC1=C(O)C(=O)C=C(O)C1=O` [Embelin] + CS(=O)(=O)N1CCN(Cc2cc3nc(-c4cccc5[nH]ncc45)nc(N4CCOCC4)c3s2)CC1 [Pictilisib] (partner 1 µM) came in with a relative viability of 0.592.

As to `CCCCCCCCCCCC1=C(O)C(=O)C=C(O)C1=O` [Embelin] + NC(=O)Nc1cc(-c2cccc(F)c2)sc1C(=O)N[C@H]1CCCNC1 [AZD7762] (partner 0.2 µM), the relative viability amounted to 0.67.

With `CCCCCCCCCCCC1=C(O)C(=O)C=C(O)C1=O` [Embelin] + Cc1nc(NC(=O)N2CCC[C@H]2C(N)=O)sc1-c1ccnc(C(C)(C)C(F)(F)F)c1 [Alpelisib] (partner 2 µM), the relative viability is 1.16.

The subject of another assay is NCI-H2126. The assay is described as above. Conditions: first compound 0.08 µM. The method, boiled down:
as §1
Compound `CCCCCCCCCCCC1=C(O)C(=O)C=C(O)C1=O` [Embelin] + COc1cc2c(Oc3ccc(NC(=O)C4(C(=O)Nc5ccc(F)cc5)CC4)cc3F)ccnc2cc1OCCCN1CCOCC1 [Foretinib] (partner 0.25 µM) yielded a relative viability of 1.12.

On to `CCCCCCCCCCCC1=C(O)C(=O)C=C(O)C1=O` [Embelin] + CC(=O)Nc1cccc(-n2c(=O)n(C3CC3)c(=O)c3c(Nc4ccc(I)cc4F)n(C)c(=O)c(C)c32)c1 [Trametinib] (partner 0.02 µM), for which the relative viability worked out at 0.495.

`CCCCCCCCCCCC1=C(O)C(=O)C=C(O)C1=O` [Embelin] + CS(=O)(=O)N1CCN(Cc2cc3nc(-c4cccc5[nH]ncc45)nc(N4CCOCC4)c3s2)CC1 [Pictilisib] (partner 1 µM) gave a relative viability of 0.482.

Regarding `CCCCCCCCCCCC1=C(O)C(=O)C=C(O)C1=O` [Embelin] + NC(=O)Nc1cc(-c2cccc(F)c2)sc1C(=O)N[C@H]1CCCNC1 [AZD7762] (partner 0.2 µM), the relative viability came to 0.936.

Turning to `CCCCCCCCCCCC1=C(O)C(=O)C=C(O)C1=O` [Embelin] + Cc1nc(NC(=O)N2CCC[C@H]2C(N)=O)sc1-c1ccnc(C(C)(C)C(F)(F)F)c1 [Alpelisib] (partner 2 µM), the relative viability worked out at 0.792.

Still in this assay, the particulars now being: first compound 0.8 µM.
Turning to `CCCCCCCCCCCC1=C(O)C(=O)C=C(O)C1=O` [Embelin] + COc1cc2c(Oc3ccc(NC(=O)C4(C(=O)Nc5ccc(F)cc5)CC4)cc3F)ccnc2cc1OCCCN1CCOCC1 [Foretinib] (partner 0.25 µM), the relative viability was found to be 1.21.

`CCCCCCCCCCCC1=C(O)C(=O)C=C(O)C1=O` [Embelin] + CC(=O)Nc1cccc(-n2c(=O)n(C3CC3)c(=O)c3c(Nc4ccc(I)cc4F)n(C)c(=O)c(C)c32)c1 [Trametinib] (partner 0.02 µM): the relative viability was 0.548.

As for `CCCCCCCCCCCC1=C(O)C(=O)C=C(O)C1=O` [Embelin] + CS(=O)(=O)N1CCN(Cc2cc3nc(-c4cccc5[nH]ncc45)nc(N4CCOCC4)c3s2)CC1 [Pictilisib] (partner 1 µM), the relative viability amounted to 0.424.

As to `CCCCCCCCCCCC1=C(O)C(=O)C=C(O)C1=O` [Embelin] + NC(=O)Nc1cc(-c2cccc(F)c2)sc1C(=O)N[C@H]1CCCNC1 [AZD7762] (partner 0.2 µM), the relative viability was 1.08.

In turn, `CCCCCCCCCCCC1=C(O)C(=O)C=C(O)C1=O` [Embelin] + Cc1nc(NC(=O)N2CCC[C@H]2C(N)=O)sc1-c1ccnc(C(C)(C)C(F)(F)F)c1 [Alpelisib] (partner 2 µM) showed a relative viability of 0.743.

Still in this assay, the particulars now being: first compound 2.53 µM.
For the compound `CCCCCCCCCCCC1=C(O)C(=O)C=C(O)C1=O` [Embelin] + COc1cc2c(Oc3ccc(NC(=O)C4(C(=O)Nc5ccc(F)cc5)CC4)cc3F)ccnc2cc1OCCCN1CCOCC1 [Foretinib] (partner 0.25 µM), the relative viability is 1.23.

Compound `CCCCCCCCCCCC1=C(O)C(=O)C=C(O)C1=O` [Embelin] + CC(=O)Nc1cccc(-n2c(=O)n(C3CC3)c(=O)c3c(Nc4ccc(I)cc4F)n(C)c(=O)c(C)c32)c1 [Trametinib] (partner 0.02 µM) had a relative viability of 0.553.

The compound `CCCCCCCCCCCC1=C(O)C(=O)C=C(O)C1=O` [Embelin] + CS(=O)(=O)N1CCN(Cc2cc3nc(-c4cccc5[nH]ncc45)nc(N4CCOCC4)c3s2)CC1 [Pictilisib] (partner 1 µM) yielded a relative viability of 0.523.

`CCCCCCCCCCCC1=C(O)C(=O)C=C(O)C1=O` [Embelin] + NC(=O)Nc1cc(-c2cccc(F)c2)sc1C(=O)N[C@H]1CCCNC1 [AZD7762] (partner 0.2 µM) yielded a relative viability of 1.12.

In the case of `CCCCCCCCCCCC1=C(O)C(=O)C=C(O)C1=O` [Embelin] + Cc1nc(NC(=O)N2CCC[C@H]2C(N)=O)sc1-c1ccnc(C(C)(C)C(F)(F)F)c1 [Alpelisib] (partner 2 µM), the relative viability turned out to be 0.799.

Staying with this assay, now noted: first compound 8 µM.
`CCCCCCCCCCCC1=C(O)C(=O)C=C(O)C1=O` [Embelin] + COc1cc2c(Oc3ccc(NC(=O)C4(C(=O)Nc5ccc(F)cc5)CC4)cc3F)ccnc2cc1OCCCN1CCOCC1 [Foretinib] (partner 0.25 µM) displayed a relative viability of 1.2.

Turning to `CCCCCCCCCCCC1=C(O)C(=O)C=C(O)C1=O` [Embelin] + CC(=O)Nc1cccc(-n2c(=O)n(C3CC3)c(=O)c3c(Nc4ccc(I)cc4F)n(C)c(=O)c(C)c32)c1 [Trametinib] (partner 0.02 µM), the relative viability turned out to be 0.546.

`CCCCCCCCCCCC1=C(O)C(=O)C=C(O)C1=O` [Embelin] + CS(=O)(=O)N1CCN(Cc2cc3nc(-c4cccc5[nH]ncc45)nc(N4CCOCC4)c3s2)CC1 [Pictilisib] (partner 1 µM) came in with a relative viability of 0.467.

With `CCCCCCCCCCCC1=C(O)C(=O)C=C(O)C1=O` [Embelin] + NC(=O)Nc1cc(-c2cccc(F)c2)sc1C(=O)N[C@H]1CCCNC1 [AZD7762] (partner 0.2 µM), the relative viability came out at 1.

For the compound `CCCCCCCCCCCC1=C(O)C(=O)C=C(O)C1=O` [Embelin] + Cc1nc(NC(=O)N2CCC[C@H]2C(N)=O)sc1-c1ccnc(C(C)(C)C(F)(F)F)c1 [Alpelisib] (partner 2 µM), the relative viability came to 0.748.

For the next assay, the system named is NCI-H1993. The description is as above. The following applies: first compound 0.08 µM. An outline of the steps: as §1
The compound `CCCCCCCCCCCC1=C(O)C(=O)C=C(O)C1=O` [Embelin] + COc1cc2c(Oc3ccc(NC(=O)C4(C(=O)Nc5ccc(F)cc5)CC4)cc3F)ccnc2cc1OCCCN1CCOCC1 [Foretinib] (partner 0.25 µM) yielded a relative viability of 0.803.

`CCCCCCCCCCCC1=C(O)C(=O)C=C(O)C1=O` [Embelin] + CC(=O)Nc1cccc(-n2c(=O)n(C3CC3)c(=O)c3c(Nc4ccc(I)cc4F)n(C)c(=O)c(C)c32)c1 [Trametinib] (partner 0.02 µM) yielded a relative viability of 0.513.

On to `CCCCCCCCCCCC1=C(O)C(=O)C=C(O)C1=O` [Embelin] + CS(=O)(=O)N1CCN(Cc2cc3nc(-c4cccc5[nH]ncc45)nc(N4CCOCC4)c3s2)CC1 [Pictilisib] (partner 1 µM), for which the relative viability was 0.729.

Regarding `CCCCCCCCCCCC1=C(O)C(=O)C=C(O)C1=O` [Embelin] + NC(=O)Nc1cc(-c2cccc(F)c2)sc1C(=O)N[C@H]1CCCNC1 [AZD7762] (partner 0.2 µM), the relative viability worked out at 0.821.

`CCCCCCCCCCCC1=C(O)C(=O)C=C(O)C1=O` [Embelin] + Cc1nc(NC(=O)N2CCC[C@H]2C(N)=O)sc1-c1ccnc(C(C)(C)C(F)(F)F)c1 [Alpelisib] (partner 2 µM) displayed a relative viability of 0.753.
